According to patent US8741806B2, “Herbicides” (Syngenta Limited, priority 2009, dated 2014):

Key:
Format in all cases: in vivo
[1] = test system: Lolium perenne (LOLPE); assay: Example B post-emergence herbicidal activity, glasshouse pot test; conditions: 312 h, rate 250 g/ha, evaluated after 13 days, scale 0-100, read-out: Post-emergence activity LOLPE (100=total damage to plant; 0=no damage to plant)
Experimental: (§1) Seeds of a variety of test species were sown in standard soil in pots. After cultivation for one day (pre-emergence) or after 8 days cultivation (post-emergence) under controlled conditions in a glasshouse (at 24/16° C., day/night; 14 hours light; 65% humidity), the plants were sprayed with an aqueous spray solution derived from the formulation of the technical active ingredient of formula I in acetone/water (50:50) solution containing 0.5% Tween 20 (polyoxyethelyene sorbitan monolaurate, CAS RN 9005-64-5). The test plants were then grown in a glasshouse under controlled conditions in a glasshouse (at 24/16° C., day/night; 14 hours light; 65% humidity) and watered twice daily. After 13 days for pre and post-emergence, the test was evaluated (100=total damage to plant; 0=no damage to plant). Setaria faberi (SETFA), Lolium perenne (LOLPE), Alopecurus myosuroides (ALOMY), Echinochloa crus-galli (ECHCG), and Avena fatua (AVEFA). Post-Emergence Activity

[2] = test system: Echinochloa crus-galli (ECHCG); assay: as above; conditions: 312 h, rate 250 g/ha, evaluated after 13 days, scale 0-100, read-out: Post-emergence activity ECHCG (100=total damage to plant; 0=no damage to plant)
Experimental: as §1

[3] = test system: Avena fatua (AVEFA); assay: as above; conditions: 312 h, rate 250 g/ha, evaluated after 13 days, scale 0-100, read-out: Post-emergence activity AVEFA (100=total damage to plant; 0=no damage to plant)
Experimental: as §1

[4] = test system: Alopecurus myosuroides (ALOMY); assay: as above; conditions: 312 h, rate 250 g/ha, evaluated after 13 days, scale 0-100, read-out: Post-emergence activity ALOMY (100=total damage to plant; 0=no damage to plant)
Experimental: as §1

[5] = test system: Lolium perenne (LOLPE); assay: Example B pre-emergence herbicidal activity, glasshouse pot test; conditions: 312 h, rate 250 g/ha, evaluated after 13 days, scale 0-100, read-out: Pre-emergence activity LOLPE (100=total damage to plant; 0=no damage to plant)
Experimental: as §1, with “Pre-Emergence” for “Post-Emergence”

[6] = test system: Echinochloa crus-galli (ECHCG); assay: as above; conditions: 312 h, rate 250 g/ha, evaluated after 13 days, scale 0-100, read-out: Pre-emergence activity ECHCG (100=total damage to plant; 0=no damage to plant)
Experimental: as §1, with “Pre-Emergence” for “Post-Emergence”

[7] = test system: Avena fatua (AVEFA); assay: as above; conditions: 312 h, rate 250 g/ha, evaluated after 13 days, scale 0-100, read-out: Pre-emergence activity AVEFA (100=total damage to plant; 0=no damage to plant)
Experimental: as §1, with “Pre-Emergence” for “Post-Emergence”

[8] = test system: Alopecurus myosuroides (ALOMY); assay: as above; conditions: 312 h, rate 250 g/ha, evaluated after 13 days, scale 0-100, read-out: Pre-emergence activity ALOMY (100=total damage to plant; 0=no damage to plant)
Experimental: as §1, with “Pre-Emergence” for “Post-Emergence”

Row | Structure (SMILES) | pest or weed control at 250 g/ha [1] | pest or weed control at 250 g/ha [2] | pest or weed control at 250 g/ha [3] | pest or weed control at 250 g/ha [4] | pest or weed control at 250 g/ha [5] | pest or weed control at 250 g/ha [6] | pest or weed control at 250 g/ha [7] | pest or weed control at 250 g/ha [8]
1 | CCc1ccc(-c2c(F)cc(Cl)cc2F)cc1C1=C(O)CC(C)(C)CC1=O [Compound T28] | 100% | 100% | 50% | 30% | 90% | 100% | 40% | 20%
2 | CCc1ccc(-c2ccc(Cl)c(F)c2Cl)cc1C1=C(O)CC(C)(C)CC1=O [Compound T29] | 100% | 100% | 30% | 40% | 70% | 90% | 0% | 40%
3 | CCc1ccc(-c2ccc(Cl)c(F)c2F)cc1C1=C(O)CC(C)(C)CC1=O [Compound T30] | 100% | 100% | 60% | 80% | 70% | 70% | 20% | 0%
4 | CCc1ccc(-c2ccc(Cl)cc2F)cc1C1=C(O)CC(C)(C)CC1=O [Compound T32] | 100% | 100% | 70% | 40% | 80% | 80% | 30% | 0%
5 | CCc1ccc(-c2ccc(Cl)c(F)c2)cc1C1=C(O)CC(C)(C)CC1=O [Compound T33] | 100% | 100% | 80% | 100% | 90% | 90% | 20% | 0%
6 | CCc1ccc(-c2ccc(C(F)(F)F)cc2)cc1C1=C(O)CC(C)(C)CC1=O [Compound T34] | 100% | 100% | 100% | 100% | 30% | 50% | 0% | 20%
7 | CCc1ccc(-c2ccc(Cl)c(C(F)(F)F)c2)cc1C1=C(O)CCCC1=O [Compound T41] | 100% | 90% | 50% | 60% | 100% | 100% | 30% | 20%
8 | CCc1ccc(-c2ccc(Cl)nc2)cc1C1=C(O)CCCC1=O [Compound T42] | 50% | 100% | 20% | 50% | 0% | 20% | 0% | 0%
9 | CCc1ccc(-c2ccc(Cl)cc2Cl)cc1C1=C(O)CCCC1=O [Compound T44] | 80% | 100% | 0% | 30% | 80% | 90% | 0% | 0%
